Where two headings read alike, the source gives them in different places.
Tests used:
Human TRPV1 = biological target: T1, Human TRPV1 (Homo sapiens, UniProt Q8NER1); assay: Evaluation of agonistic properties using human TRPV1 transiently expressing cells; assay type: cell-based
T1 construct: the TRPV1 gene (GenBank NP_542435.2) had been inserted; expressed in transfected cells; host or cells: HEK293 cells (cat #CCL-82.2, ATCC), transient transfection with pcDNA3.1
Source text: Test Example 1: Evaluation of Agonistic Properties Using Human TRPV1 Transiently Expressing Cells
(1) Generation of Human TRPV1 Transiently Expressing Cells
Human TRPV1 transiently expressing cells were generated and subjected to culture. Specifically, HEK293 cells (cat #CCL-82.2, ATCC) were used as host cells. Human TRPV1 and apoaequorin were transiently expressed by introducing the mammalian cell expression pcDNA3.1 vector (cat #v790-20, Invitrogen) into which the TRPV1 gene (GenBank NP_542435.2) had been inserted.
The Dulbecco's Modified Eagle's Medium (DMEM) medium (cat #11550-043, Thermo Fisher Scientific) containing 10% inactivated fetal bovine serum (cat #10270-106, Thermo Fisher Scientific) was used as the medium, and the culture was carried out in tissue culture dishes (cat #3020-100, Iwaki). During the culture, cells were collected every 2 to 3 days by treating with PBS containing 10% 2.5 g/1-trypsin/[…] solution, phenol red (cat #32777-44, Nacalai Tesque), and passage culture was carried out.
Three days after the passage, cells were collected with 10% trypsin-PBS treatment at a state of about 80% confluency, suspended in a DMEM medium containing 10% fetal bovine serum to 4000 cells/35 μl/well, and seeded into 384-well plates (cat #353962, FALCON).
The day after seeding, Viviren (cat #E6492, Promega) was added (15 μl/well) to a final concentration of 4.5 μM/HBSS (cat #14065-056, Thermo Fisher Scientific)/90 mM HEPES (cat #17514-15, Nacalai Tesque)/0.1% BSA (cat #01281-84, Nacalai Tesque), and after centrifugation, the samples were allowed to stand at room temperature for 2 hours under light-shielded conditions.
(2) Preparation of Test Compounds
For the test compounds, dimethyl sulfoxide solutions were produced at a concentration 1000 times the final concentration, and from these solutions, solutions at concentration 10 times the final concentration were prepared with Hanks/20 mmol/L HEPES/0.10% BSA (cat #01281-84, Nacalai Tesque).
(3) Evaluation of TRPV1-Agonistic Properties
FDSS7000 (Hamamatsu Photonics K.K.) was used for detection of TRPV1 agonist-stimulated luminescence signals. The test compounds were added to plates to which the cells and luminescent substrates had been added. The luminescence signals (center wavelength: 465 nm) after addition of the test compounds were measured, and the Rlu (Max−Min) was calculated.

[1] = Evaluation test for metabolic stability to S9; assay type: in vitro ADME; details: liver S9 fraction, 37° C., 15 minutes, final compound concentration 10 nM
Method: Test Example 4: Evaluation Test for Metabolic Stability to S9
The compounds were added to a reaction solution in which the liver S9 fraction was diluted with phosphate buffer, and incubation was initiated at 37° C. (final compound concentration 10 nM, final volume 300 μL). After incubation for 15 minutes, the reaction was stopped by adding the reaction solution to acetonitrile, and centrifugation was carried out. After filtering the supernatant through a filter, the amount of compounds was determined using LC/MS/MS. From the amount of compounds obtained, the residual rate 15 minutes after the initiation of the reaction was calculated relative to the amount of compounds before the initiation of the reaction (0 minutes).

[2] = HEK293 cells transiently expressing human TRPV1 and apoaequorin, luminescence signal Rlu (Max-Min), read-out: TRPV1 EC50

T1 sequence (Q8NER1 whole entry): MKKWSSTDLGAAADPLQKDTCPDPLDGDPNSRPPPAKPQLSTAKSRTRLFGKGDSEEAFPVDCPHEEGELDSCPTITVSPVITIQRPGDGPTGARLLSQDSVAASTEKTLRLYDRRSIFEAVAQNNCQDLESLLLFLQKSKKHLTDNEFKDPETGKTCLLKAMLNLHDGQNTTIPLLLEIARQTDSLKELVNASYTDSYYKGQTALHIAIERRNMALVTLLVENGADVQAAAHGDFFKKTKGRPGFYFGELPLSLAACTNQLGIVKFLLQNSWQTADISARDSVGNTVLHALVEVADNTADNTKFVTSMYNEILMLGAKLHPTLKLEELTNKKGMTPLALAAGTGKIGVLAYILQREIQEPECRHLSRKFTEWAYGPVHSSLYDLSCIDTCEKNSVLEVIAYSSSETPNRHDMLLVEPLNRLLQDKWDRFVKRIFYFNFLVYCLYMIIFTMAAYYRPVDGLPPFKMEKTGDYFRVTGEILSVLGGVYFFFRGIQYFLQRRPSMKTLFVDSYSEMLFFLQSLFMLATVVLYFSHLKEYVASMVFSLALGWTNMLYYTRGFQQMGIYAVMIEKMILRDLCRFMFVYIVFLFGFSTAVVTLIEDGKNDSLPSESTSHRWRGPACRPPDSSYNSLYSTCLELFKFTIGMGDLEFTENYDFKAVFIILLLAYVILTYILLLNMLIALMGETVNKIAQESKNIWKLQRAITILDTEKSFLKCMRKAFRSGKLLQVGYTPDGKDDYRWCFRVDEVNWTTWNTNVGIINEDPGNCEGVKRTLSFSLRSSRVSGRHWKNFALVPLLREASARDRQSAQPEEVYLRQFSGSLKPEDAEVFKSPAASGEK

Structure (SMILES) | EC50 (Human TRPV1; [2]) | Residual rate (%) [1] | EC50 (Human TRPV1)
COc1cc(CC(=O)Nc2cccc([C@H]3CC[C@@H](OC(=O)Cc4ccc(Cl)cc4)CC3)c2)ccc1O [Example 14, cis-4-{3-[2-(4-hydroxy-3-methoxyphenyl)acetamido]phenyl}cyclohexyl (4-chlorophenyl)acetate] | 6.3 nM | 11% | 
COc1cc(CC(=O)Nc2ccc(F)c(-c3cccc(O)c3)c2)ccc1O [compound 17] | 7020 nM |  | 
COc1cc(CC(=O)Nc2cccc(-c3cccc(OC(=O)CC4CCOCC4)c3)c2)ccc1O [Example 29, 3′-[2-(4-hydroxy-3-methoxyphenyl)acetamido][1,1′-biphenyl]-3-yl (oxa-4-yl)acetate] | 13.2 nM | <1% | 
COc1cc(CC(=O)Nc2cccc([C@H]3CC[C@H](OC(C)=O)CC3)c2)ccc1OC(C)=O [Example 40, 4-(2-{3-[(trans)-4-(acetyloxy)cyclohexyl]anilino}-2-oxoethyl)-2-methoxyphenyl acetate] | 480 nM |  | 
COc1cc(CNC(=O)c2cccc([C@H]3CC[C@@H](OC(C)=O)CC3)c2)ccc1O [Example 42, cis-4-(3-{[(4-hydroxy-3-methoxyphenyl)methyl]carbamoyl}phenyl)cyclohexyl acetate] | 83.1 nM |  | 
COc1cc(CC(=O)Nc2cccc(-c3cccc(OC(=O)Cc4ccccc4)c3)c2)ccc1O [Example 18, 3′-[2-(4-hydroxy-3-methoxyphenyl)acetamido][1,1′-biphenyl]-3-yl phenylacetate] |  | <1% | 5.4 nM
COc1cc(CC(=O)Nc2ccnc(-c3cccc(OC(=O)CC4CCCCC4)c3)c2)ccc1O [Example 31, 3-{4-[2-(4-hydroxy-3-methoxyphenyl)acetamido]pyridin-2-yl}phenyl cyclohexylacetate] | 14.9 nM | <1% | 
COc1cc(CC(=O)Nc2cccc(-c3cccc(OC(=O)C(C)C)c3)c2F)ccc1O [Example 23, 2′-fluoro-3′-[2-(4-hydroxy-3-methoxyphenyl)acetamido][1,1′-biphenyl]-3-yl 2-methylpropanoate] | 15.2 nM | <1% | 
COc1cc(CC(=O)Nc2cccc(-c3ccc(OC(=O)c4ccccc4)cc3)c2)ccc1O [Example 3, 3′-[2-(4-hydroxy-3-methoxyphenyl)acetamido][1,1′-biphenyl]-4-yl benzoate] | 341 nM | <1% | 
COc1cc(CC(=O)Nc2cc(-c3cccc(OC(=O)C(C)C)c3)ccc2OC)ccc1O [Example 20, 3′-[2-(4-hydroxy-3-methoxyphenyl)acetamido]-4′-methoxy[1,1′-biphenyl]-3-yl 2-methylpropanoate] | 35.1 nM | <1% | 
COc1cc(CC(=O)Nc2cc(-c3cccc(OC(=O)C(C)C)c3)ccc2F)ccc1O [Example 22, 4′-fluoro-3′-[2-(4-hydroxy-3-methoxyphenyl)acetamido][1,1′-biphenyl]-3-yl 2-methylpropanoate] | 6.8 nM | <1% | 
COc1cc(CNC(=O)c2ccnc(-c3cccc(O)c3)c2)ccc1O [Reference Example 18] | 6110 nM |  | 
COc1cc(CC(=O)Nc2cccc(-c3cccc(OC(=O)Cc4ccc(C)cc4)c3)c2)ccc1O [Example 27, 3′-[2-(4-hydroxy-3-methoxyphenyl)acetamido][1,1′-biphenyl]-3-yl (4-methylphenyl)acetate] | 11.1 nM | <1% | 
COc1cc(CC(=O)Nc2cccc([C@H]3CC[C@@H](OC(=O)CC4CCCCC4)CC3)c2)ccc1O [Example 5, cis-4-{3-[2-(4-hydroxy-3-methoxyphenyl)acetamido]phenyl}cyclohexyl cyclohexylacetate] | 61.2 nM | 90% | 
COc1cc(CC(=O)Nc2cccc([C@H]3CC[C@@H](OC(=O)Cc4cccs4)CC3)c2)ccc1O [Example 13, cis-4-{3-[2-(4-hydroxy-3-methoxyphenyl)acetamido]phenyl}cyclohexyl (thiophen-2-yl)acetate] | 9 nM | 89% | 
COc1cc(CC(=O)Nc2cccc([C@H]3CC[C@H](OC(=O)C(C)C)CC3)c2)ccc1O [Example 48, trans-4-{3-[2-(4-hydroxy-3-methoxyphenyl)acetamido]phenyl}cyclohexyl 2-methylpropanoate] | 32.1 nM |  | 

Structure (SMILES) | EC50 (Human TRPV1; [2]) | Residual rate (%) [1] | EC50 (Human TRPV1)
COc1cc(CNC(=O)c2cccc(-c3cccc(OC(=O)C(C)C)c3)c2)ccc1O [Example 44, 3′-1{[(4-hydroxy-3-methoxyphenyl)methyl]carbamoyl}[1,1′-biphenyl]-3-yl 2-methylpropanoate] | 10.2 nM | <1% | 
COc1cc(CNC(=O)c2cccc(-c3cccc(O)c3)n2)ccc1O [compound 19] | 2720 nM |  | 
COc1cc(CC(=O)Nc2cccc([C@H]3CC[C@@H](OC(C)=O)CC3)c2)ccc1OC(C)=O [Example 39, 4-(2-{3-[(cis)-4-(acetyloxy)cyclohexyl]anilino}-2-oxoethyl)-2-methoxyphenyl acetate] | 282 nM |  | 
COc1cc(CC(=O)Nc2cccc([C@H]3CC[C@H](O)CC3)c2)ccc1O [Reference Example 10, N-{3-[(trans)-4-Hydroxycyclohexyl]phenyl}-2-(4-hydroxy-3-methoxyphenyl)acetamide] | 8060 nM |  | 
COc1cc(CC(=O)Nc2cccc(-c3cccc(O)c3)n2)ccc1O [compound 16] | 1010 nM |  | 
COc1cc(CC(=O)Nc2cccc([C@H]3CC[C@@H](OC(=O)Cc4ccccc4)CC3)c2)ccc1O [Example 35, cis-4-{3-[2-(4-hydroxy-3-methoxyphenyl)acetamido]phenyl}cyclohexyl phenylacetate] |  |  | 8.2 nM
COc1cc(CNC(=O)c2cccc(-c3cccc(O)c3)c2)ccc1O [Reference Example 12, 3′-Hydroxy-N-[(4-hydroxy-3-methoxyphenyl)methyl][1,1′-biphenyl]-3-carboxamide] | 3290 nM |  | 
COc1cc(CC(=O)Nc2cccc([C@H]3CC[C@H](OC(C)=O)CC3)c2)ccc1O [Example 38, trans-4-{3-[2-(4-hydroxy-3-methoxyphenyl)acetamido]phenyl}cyclohexyl acetate] | 18.9 nM |  | 
COc1cc(CC(=O)Nc2ccnc([C@H]3CC[C@@H](OC(C)=O)CC3)c2)ccc1O [Example 41, cis-4-{4-[2-(4-hydroxy-3-methoxyphenyl)acetamido]pyridin-2-yl}cyclohexyl acetate] | 95.1 nM |  | 
COc1cc(CC(=O)Nc2cccc(-c3cccc(O)c3)c2)ccc1O [compound 14] | 1650 nM |  | 
COc1cc(CC(=O)Nc2cccc([C@H]3CC[C@H](OC(=O)C4CCCCC4)CC3)c2)ccc1O [Example 37, trans-4-{3-[2-(4-hydroxy-3-methoxyphenyl)acetamido]phenyl}cyclohexyl cyclohexanecarboxylate] | 73.1 nM |  | 
COc1cc(CC(=O)Nc2ccnc([C@H]3CC[C@@H](OC(C)=O)CC3)c2)ccc1OC(C)=O [Example 43, 4-[2-({2-[(cis)-4-(acetyloxy)cyclohexyl]pyridin-4-yl}amino)-2-oxoethyl]-2-methoxyphenyl acetate] | 3080 nM |  | 
COc1cc(CC(=O)Nc2ccnc(-c3cccc(O)c3)c2)ccc1O [compound 15] | 4560 nM |  | 
COc1cc(CC(=O)Nc2cccc([C@H]3CC[C@@H](O)CC3)c2)ccc1O [Reference Example 9, N-{3-[(cis)-4-Hydroxycyclohexyl]phenyl}-2-(4-hydroxy-3-methoxyphenyl)acetamide] | 2690 nM |  | 
COc1cc(CC(=O)Nc2cccc(-c3ccc(O)cc3)c2)ccc1O [compound 13] | 606 nM |  | 
COc1cc(CC(=O)Nc2cccc([C@H]3CC[C@H](OC(=O)Cc4ccccc4)CC3)c2)ccc1O [Example 36, trans-4-{3-[2-(4-hydroxy-3-methoxyphenyl)acetamido]phenyl}cyclohexyl phenylacetate] |  |  | 57.5 nM
